Source: patent US8906909B2 (Curis, Inc., priority 2009, dated 2014)
Read-outs that look alike come from different tables or passages of the source.

Key:
[1] = tested on: HDACs (HeLa cell nuclear extracts); assay: HDAC enzymatic activity, Biomol Color de Lys system; assay type: biochemical
Summary of the method: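 IC50 from sigmoidal dose-response fits of fluorescence (Ex 350–380, Em 440–460 nm). Compounds in DMSO dilution series incubated 1 h at 25 °C with HeLa nuclear extract HDACs and colorimetric substrate, pH 8.0 Tris/Cl buffer with NaCl, KCl, MgCl2, before developer termination.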

[2] = tested on: HCT-118 cells; assay: Cell proliferation assay Method A (ATPlite), HCT-118; assay type: cell-based; settings: 72 hours, read-out: antiproliferative activity IC50, HCT-118
Protocol: (§1) Cancer cell lines were plated at 5,000 to 10,000 per well in 96-well flat bottomed plates with various concentration of compounds. The cells were incubated with compounds for 72 hours in the presence of 0.5% of fetal bovine serum. Growth inhibition was accessed by adenosine triphosphate (ATP) content assay using Perkin Elmer ATPlite kit. ATPlite is an ATP monitoring system based on firefly luciferase. Briefly, 25 μl of mammalian cell lysis solution was added to 50 μl of phenol red-free culture medium per well to lyse the cells and stabilize the ATP. 25 μl of substrate solution was then added to the well and subsequently the luminescence was measured.

[3] = tested on: BT-474 cells; assay: Cell proliferation assay Method A (ATPlite), BT-474; assay type: cell-based; settings: Homo sapiens, 72 hours, read-out: antiproliferative activity IC50, BT-474
Protocol: as §1

[4] = tested on: Sk-Mel-28 cells; assay: Cell proliferation assay Method A (ATPlite), Sk-Mel-28; assay type: cell-based; settings: Homo sapiens, 72 hours, read-out: antiproliferative activity IC50, Sk-Mel-28
Protocol: as §1

[5] = tested on: H1993 cells; assay: Cell proliferation assay Method A (ATPlite), H1993; assay type: cell-based; settings: Homo sapiens, NCI-H1993, 72 hours, read-out: antiproliferative activity IC50, H1993
Protocol: as §1

[6] = tested on: H1975 cells; assay: Cell proliferation assay Method B, H1975; assay type: cell-based; settings: Homo sapiens, NCI-H1975, NSCLC, 72 hours, read-out: antiproliferative activity IC50, H1975
Protocol: (§2) Cancer cell lines were plated at 5,000 to 10,000 per well in 96-well flat bottomed plates with various concentration of compounds. The cells were incubated with compounds for 72 hours in the presence of 0.5% of fetal bovine serum. Growth inhibition was accessed by adenosine triphosphate (ATP) content assay using Promega CellTiter-Glo kit. Promega CellTiter-Glo kit is an ATP monitoring system based on firefly luciferase. Briefly, 16 μl of mammalian cell lysis and substrate solution was added to 84 μl of culture medium per well to lyse the cells and stabilize the ATP. The mixture was shaken and incubated for 30 minutes and subsequently the luminescence was measured.

[7] = tested on: BT474 cells; assay: Cell proliferation assay Method B, BT474; assay type: cell-based; settings: Homo sapiens, BT-474, 72 hours, read-out: antiproliferative activity IC50, BT474
Protocol: as §2

[8] = tested on: MDA-MB-468 cells; assay: Cell proliferation assay Method B, MDA-MB-468; assay type: cell-based; settings: Homo sapiens, 72 hours, read-out: antiproliferative activity IC50, MDA-MB-468
Protocol: as §2

[9] = tested on: HCC1937 cells; assay: Cell proliferation assay Method B, HCC1937; assay type: cell-based; settings: Homo sapiens, 72 hours, read-out: antiproliferative activity IC50, HCC1937
Protocol: as §2

[10] = tested on: MDA-MB-436 cells; assay: Cell proliferation assay Method B, MDA-MB-436; assay type: cell-based; settings: Homo sapiens, 72 hours, read-out: antiproliferative activity IC50, MDA-MB-436
Protocol: as §2

[11] = tested on: U87MG cells; assay: Cell proliferation assay Method B, U87MG; assay type: cell-based; settings: Homo sapiens, U-87 MG, Glioblastoma, 72 hours, read-out: antiproliferative activity IC50, U87MG
Protocol: as §2

[12] = tested on: Ca127 cells; assay: Cell proliferation assay Method B, Ca127; assay type: cell-based; settings: HNC; Ca127; 72 hours, 0.5% fetal bovine serum, CellTiter-Glo; read-out: antiproliferative activity IC50, Ca127
Protocol: as §2

[13] = tested on: Sk-Mel-28 cells; assay: Cell proliferation assay Method B, Sk-Mel-28; assay type: cell-based; settings: Homo sapiens, Melanoma, 72 hours, read-out: antiproliferative activity IC50, Sk-Mel-28
Protocol: as §2

[14] = tested on: A375 cells; assay: Cell proliferation assay Method B, A375; assay type: cell-based; settings: Homo sapiens, A-375, Melanoma, 72 hours, read-out: antiproliferative activity IC50, A375
Protocol: as §2

[15] = tested on: H1993 cells; assay: Cell proliferation assay Method B, H1993; assay type: cell-based; settings: Homo sapiens, NCI-H1993, NSCLC, 72 hours, read-out: antiproliferative activity IC50, H1993
Protocol: as §2

[16] = tested on: RPMI-8226 cells; assay: Cell proliferation assay Method B, RPMI-8226; assay type: cell-based; settings: Homo sapiens, Multiple Myeloma, 72 hours, read-out: antiproliferative activity IC50, RPMI-8226
Protocol: as §2

[17] = tested on: MDA-MB-231 cells; assay: Cell proliferation assay Method B, MDA-MB-231; assay type: cell-based; settings: Homo sapiens, 72 hours, 0.5% fetal bovine serum, CellTiter-Glo, read-out: antiproliferative activity IC50, MDA-MB-231
Protocol: as §2

[18] = H1975, 0.5% fetal bovine serum, CellTiter-Glo
[19] = BT474, 0.5% fetal bovine serum, CellTiter-Glo
[20] = 0.5% fetal bovine serum, CellTiter-Glo
[21] = U87MG, 0.5% fetal bovine serum, CellTiter-Glo
[22] = Sk-Mel-28, 0.5% fetal bovine serum, CellTiter-Glo
[23] = A375, 0.5% fetal bovine serum, CellTiter-Glo
[24] = H1993, 0.5% fetal bovine serum, CellTiter-Glo

SMILES | IC50 [1] | IC50 [2] | IC50 [3] | IC50 [5] | IC50 [6, 18] | IC50 [7, 19] | IC50 [8, 20] | IC50 [10, 20] | IC50 [11, 21] | IC50 [14, 23] | melting point | IC50 ([6]; Method B) | IC50 ([15]; Method B) | IC50 ([7]; Breast, Method B) | IC50 ([8]; Breast, Method B) | IC50 ([9]; Breast, Method B) | IC50 ([10]; Breast, Method B) | IC50 [4] | IC50 [12] | IC50 [13, 22] | further results
CN(Cc1cc2nc(-c3cnc(N)nc3)nc(N3CCOCC3)c2s1)c1ncc(C(=O)NO)cn1 [Compound 115, 2-(((2-(2-aminopyrimidin-5-yl)-4-morpholinothieno[3,2-d]pyrimidin-6-yl)methyl)(methyl)amino)-N-hydroxypyrimidine-5-carboxamide] | < 100 nM | < 100 nM | < 100 nM | < 100 nM | 10 to 100 nM | 10 to 100 nM | 100 to 1000 nM | 100 to 1000 nM | 10 to 100 nM | 10 to 100 nM | 175 to 181 °C |  |  |  |  |  |  | < 100 nM | 10 to 100 nM | 10 to 100 nM | IC50 [9, 20]: 10 to 100 nM
Cc1ncc(-c2nc(N3CCOCC3)c3sc(CN(C)c4ncc(C(=O)NO)cn4)cc3n2)cn1 [Compound 120, N-hydroxy-2-(methyl((2-(2-methylpyrimidin-5-yl)-4-morpholinothieno[3,2-d]pyrimidin-6-yl)methyl)amino)pyrimidine-5-carboxamide] | < 100 nM |  |  |  |  |  |  |  |  |  | 184 to 186 °C | 10 to 100 nM | 10 to 100 nM | 10 to 100 nM | 10 to 100 nM | 10 to 100 nM | 10 to 100 nM |  |  |  | IC50 ([11]; Method B): 10 to 100 nM; IC50 ([13]; SK-MEL-28, Method B): 10 to 100 nM; IC50 ([14]; Method B): 10 to 100 nM; IC50 ([16]; Method B): < 10 nM
CNc1ncc(-c2nc(N3CCOCC3)c3sc(CN(C)c4ncc(C(=O)NO)cn4)cc3n2)cn1 [Compound 116, N-hydroxy-2-(methyl((2-(2-(methylamino)pyrimidin-5-yl)-4-morpholinothieno[3,2-d]pyrimidin-6-yl)methyl)amino)pyrimidine-5-carboxamide] | < 100 nM | < 100 nM | < 100 nM | < 100 nM |  |  |  |  |  |  | 183 to 187 °C | 10 to 100 nM | 10 to 100 nM | 10 to 100 nM | 10 to 100 nM | 10 to 100 nM | 10 to 100 nM | < 100 nM |  |  | IC50 ([11]; Method B): 10 to 100 nM; IC50 ([13]; SK-MEL-28, Method B): < 10 nM; IC50 ([14]; Method B): 10 to 100 nM; IC50 ([16]; Method B): < 10 nM
CN(Cc1cc2nc(-c3cccc(O)c3)nc(N3CCOCC3)c2s1)c1ncc(C(=O)NO)cn1 [Compound 132, N-hydroxy-2-(((2-(3-hydroxyphenyl)-4-morpholinothieno[3,2-d]pyrimidin-6-yl)methyl)(methyl)amino)pyrimidine-5-carboxamide] | < 100 nM | < 100 nM | < 100 nM | < 100 nM | 10 to 100 nM | < 10 nM | 100 to 1000 nM | 10 to 100 nM | 10 to 100 nM | 10 to 100 nM | 175 to 181 °C |  |  |  |  |  |  | < 100 nM | 10 to 100 nM | 10 to 100 nM | IC50 [15, 24]: 10 to 100 nM; IC50 [9, 20]: 100 to 1000 nM; IC50 [16, 20]: < 10 nM

Continued, in another order:

IC50 [1] | IC50 [2] | IC50 [3] | IC50 [5] | IC50 [6, 18] | IC50 [7, 19] | IC50 [8, 20] | IC50 [10, 20] | IC50 [11, 21] | IC50 [14, 23] | melting point | IC50 ([6]; Method B) | IC50 ([15]; Method B) | IC50 ([7]; Breast, Method B) | IC50 ([8]; Breast, Method B) | IC50 ([9]; Breast, Method B) | IC50 ([10]; Breast, Method B) | SMILES | IC50 [4] | IC50 [12] | IC50 [13, 22] | further results
< 100 nM | < 100 nM | < 100 nM | < 100 nM |  |  |  |  |  |  | 160 to 164 °C | 10 to 100 nM | 10 to 100 nM | < 10 nM | 10 to 100 nM | 10 to 100 nM | 10 to 100 nM | CN(Cc1cc2nc(-c3cccc(CO)c3)nc(N3CCOCC3)c2s1)c1ncc(C(=O)NO)cn1 [Compound 138, N-hydroxy-2-(((2-(3-(hydroxymethyl)phenyl)-4-morpholinothieno[3,2-d]pyrimidin-6-yl)methyl)(methyl)amino)pyrimidine-5-carboxamide] | < 100 nM |  |  | IC50 ([11]; Method B): < 10 nM; IC50 ([13]; SK-MEL-28, Method B): 10 to 100 nM; IC50 ([14]; Method B): 10 to 100 nM
< 100 nM |  |  |  | 10 to 100 nM | < 10 nM | 10 to 100 nM | 10 to 100 nM | 10 to 100 nM | 10 to 100 nM | 228 to 230 °C |  |  |  |  |  |  | CC(=O)Nc1ccc(-c2nc(N3CCOCC3)c3sc(CN(C)c4ncc(C(=O)NO)cn4)cc3n2)cc1 [Compound 157, 2-(((2-(4-acetamidophenyl)-4-morpholinothieno[3,2-d]pyrimidin-6-yl)methyl)(methyl)amino)-N-hydroxypyrimidine-5-carboxamide] |  | 10 to 100 nM | 10 to 100 nM | IC50 [15, 24]: 10 to 100 nM; IC50 [17]: 10 to 100 nM; IC50 [16, 20]: 10 to 100 nM
